According to patent US8273880B2, “Pyrazole compounds with inhibitory activity against ROS kinase” (Korea Institute of Science and Technology, priority 2009, dated 2012):

Key:
Type in all cases: biochemical
[1] = molecular target: ROS kinase (Homo sapiens, UniProt P08922); assay: ROS kinase screening (HotSpot, IC50 mode); design: purchased Reaction Biology Corporation; details: 10-dose IC50 mode starting from 20 μM; 10 μM ATP; read-out: Inhibitory Activity against ROS (IC50)
Procedure: (§1) Kinase screening was performed using a “HotSpot” assay platform commercially available from Reaction Biology Corporation. For this kinase screening, reaction buffers were based on 20 mM Hepes (pH 7.5), 10 mM MgCl2, 1 mM EGTA, 0.02% Brij35, 0.02 mg/mL BSA, 0.1 mM Na3VO4, 2 mM DTT, and 1% DMSO, with supplementary factors necessary for respective kinase reactions added thereto. In each enzyme reaction, […] of each kinase was used together with a fresh reaction buffer and appropriate supplementary factors. A solution of each compound in DMSO was added in a suitable concentration to the reaction buffer. Kinase reaction started with the introduction of […] (specific activity […]) and continued for 2 hours at room temperature.
The reaction was performed with 10 μM ATP.

[2] = molecular target: T1, SYK (Homo sapiens, UniProt P43405); assay: HotSpot kinase screening over 45 different kinases, single dose 10 μM; details: single dose concentration of 10 μM, 10 μM ATP
T1 construct: purchased Reaction Biology Corporation
Procedure: as §1
(§2) 1) Screening of Compounds Over 45 Different Kinases
(§3) Each compound was tested twice at a single dose concentration of 10 μM. […] The reaction was performed with 10 μM ATP.

[3] = molecular target: T2, EGFR (Homo sapiens, UniProt P00533); assay: as above; details: single dose concentration of 10 μM, 10 μM ATP
T2 construct: purchased Reaction Biology Corporation
Procedure: as §1, §2, §3

[4] = molecular target: T3, LYN (Homo sapiens, UniProt P07948); assay: as above; details: single dose concentration of 10 μM, 10 μM ATP
T3 construct: purchased Reaction Biology Corporation
Procedure: as §1, §2, §3

[5] = molecular target: T4, BRAF (Homo sapiens, UniProt P15056); assay: as above; details: single dose concentration of 10 μM, 10 μM ATP
T4 construct: purchased Reaction Biology Corporation
Procedure: as §1, §2, §3

[6] = molecular target: T5, KDR/VEGFR2 (Homo sapiens, UniProt P35968); assay: as above; details: single dose concentration of 10 μM, 10 μM ATP
T5 construct: purchased Reaction Biology Corporation
Procedure: as §1, §2, §3

[7] = molecular target: T6, c-Src (Homo sapiens, UniProt P12931); assay: as above; details: single dose concentration of 10 μM, 10 μM ATP
T6 construct: purchased Reaction Biology Corporation
T6 sequence (P12931 whole entry): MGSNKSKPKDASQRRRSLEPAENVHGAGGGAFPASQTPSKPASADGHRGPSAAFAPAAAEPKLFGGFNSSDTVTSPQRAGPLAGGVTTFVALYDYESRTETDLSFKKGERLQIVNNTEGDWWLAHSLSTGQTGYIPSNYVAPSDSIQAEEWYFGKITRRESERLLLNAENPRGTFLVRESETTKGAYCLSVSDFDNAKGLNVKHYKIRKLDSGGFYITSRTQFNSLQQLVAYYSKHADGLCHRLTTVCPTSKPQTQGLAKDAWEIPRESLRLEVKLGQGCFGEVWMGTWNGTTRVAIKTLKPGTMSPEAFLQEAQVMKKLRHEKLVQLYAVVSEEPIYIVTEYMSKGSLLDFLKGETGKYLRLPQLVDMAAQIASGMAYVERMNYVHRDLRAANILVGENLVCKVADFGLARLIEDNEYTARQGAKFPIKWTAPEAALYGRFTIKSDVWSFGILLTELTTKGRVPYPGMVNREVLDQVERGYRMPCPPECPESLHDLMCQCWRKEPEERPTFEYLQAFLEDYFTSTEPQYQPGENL
Procedure: as §1, §2, §3

[8] = molecular target: T7, JNK1a1 (Homo sapiens, UniProt P45983); assay: as above; details: single dose concentration of 10 μM, 10 μM ATP
T7 construct: purchased Reaction Biology Corporation
Procedure: as §1, §2, §3

[9] = molecular target: T8, RET (Homo sapiens, UniProt P07949); assay: as above; details: single dose concentration of 10 μM, 10 μM ATP
T8 construct: purchased Reaction Biology Corporation
T8 sequence (P07949 29-1114): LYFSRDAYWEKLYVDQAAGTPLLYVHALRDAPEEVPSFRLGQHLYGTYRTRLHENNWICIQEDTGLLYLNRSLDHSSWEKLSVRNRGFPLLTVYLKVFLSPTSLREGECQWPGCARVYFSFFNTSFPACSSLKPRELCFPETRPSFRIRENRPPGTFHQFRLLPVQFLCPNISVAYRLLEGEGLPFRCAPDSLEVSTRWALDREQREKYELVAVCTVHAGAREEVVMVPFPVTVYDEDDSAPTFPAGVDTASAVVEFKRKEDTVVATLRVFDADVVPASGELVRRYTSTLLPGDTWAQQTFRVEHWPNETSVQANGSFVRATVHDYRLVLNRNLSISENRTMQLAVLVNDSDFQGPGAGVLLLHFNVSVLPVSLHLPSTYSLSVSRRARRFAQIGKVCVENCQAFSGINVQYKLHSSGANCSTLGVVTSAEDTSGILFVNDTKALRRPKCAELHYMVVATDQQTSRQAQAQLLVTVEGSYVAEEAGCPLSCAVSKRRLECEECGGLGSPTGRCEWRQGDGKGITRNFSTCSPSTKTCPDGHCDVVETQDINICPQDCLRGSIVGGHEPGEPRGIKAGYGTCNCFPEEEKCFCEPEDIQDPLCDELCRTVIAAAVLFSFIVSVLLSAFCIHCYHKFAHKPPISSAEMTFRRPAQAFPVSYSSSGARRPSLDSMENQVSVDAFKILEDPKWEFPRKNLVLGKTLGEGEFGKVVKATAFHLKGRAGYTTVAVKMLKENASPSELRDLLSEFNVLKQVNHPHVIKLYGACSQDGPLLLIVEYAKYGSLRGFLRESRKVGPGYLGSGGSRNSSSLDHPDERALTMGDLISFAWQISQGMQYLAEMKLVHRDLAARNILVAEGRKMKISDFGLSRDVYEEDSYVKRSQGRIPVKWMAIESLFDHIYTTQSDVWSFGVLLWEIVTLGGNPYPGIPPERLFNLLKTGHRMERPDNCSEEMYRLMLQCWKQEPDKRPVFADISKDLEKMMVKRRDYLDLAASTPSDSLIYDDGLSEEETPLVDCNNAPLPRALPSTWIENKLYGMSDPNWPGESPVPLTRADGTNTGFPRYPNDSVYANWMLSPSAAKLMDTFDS
Procedure: as §1, §2, §3

[10] = molecular target: T9, MEK1 (Homo sapiens, UniProt Q02750); assay: as above; details: single dose concentration of 10 μM, 10 μM ATP
T9 construct: purchased Reaction Biology Corporation
Procedure: as §1, §2, §3

[11] = molecular target: T10, DAPK1 (Homo sapiens, UniProt P53355); assay: as above; details: single dose concentration of 10 μM, 10 μM ATP
T10 construct: purchased Reaction Biology Corporation
T10 sequence (P53355 whole entry): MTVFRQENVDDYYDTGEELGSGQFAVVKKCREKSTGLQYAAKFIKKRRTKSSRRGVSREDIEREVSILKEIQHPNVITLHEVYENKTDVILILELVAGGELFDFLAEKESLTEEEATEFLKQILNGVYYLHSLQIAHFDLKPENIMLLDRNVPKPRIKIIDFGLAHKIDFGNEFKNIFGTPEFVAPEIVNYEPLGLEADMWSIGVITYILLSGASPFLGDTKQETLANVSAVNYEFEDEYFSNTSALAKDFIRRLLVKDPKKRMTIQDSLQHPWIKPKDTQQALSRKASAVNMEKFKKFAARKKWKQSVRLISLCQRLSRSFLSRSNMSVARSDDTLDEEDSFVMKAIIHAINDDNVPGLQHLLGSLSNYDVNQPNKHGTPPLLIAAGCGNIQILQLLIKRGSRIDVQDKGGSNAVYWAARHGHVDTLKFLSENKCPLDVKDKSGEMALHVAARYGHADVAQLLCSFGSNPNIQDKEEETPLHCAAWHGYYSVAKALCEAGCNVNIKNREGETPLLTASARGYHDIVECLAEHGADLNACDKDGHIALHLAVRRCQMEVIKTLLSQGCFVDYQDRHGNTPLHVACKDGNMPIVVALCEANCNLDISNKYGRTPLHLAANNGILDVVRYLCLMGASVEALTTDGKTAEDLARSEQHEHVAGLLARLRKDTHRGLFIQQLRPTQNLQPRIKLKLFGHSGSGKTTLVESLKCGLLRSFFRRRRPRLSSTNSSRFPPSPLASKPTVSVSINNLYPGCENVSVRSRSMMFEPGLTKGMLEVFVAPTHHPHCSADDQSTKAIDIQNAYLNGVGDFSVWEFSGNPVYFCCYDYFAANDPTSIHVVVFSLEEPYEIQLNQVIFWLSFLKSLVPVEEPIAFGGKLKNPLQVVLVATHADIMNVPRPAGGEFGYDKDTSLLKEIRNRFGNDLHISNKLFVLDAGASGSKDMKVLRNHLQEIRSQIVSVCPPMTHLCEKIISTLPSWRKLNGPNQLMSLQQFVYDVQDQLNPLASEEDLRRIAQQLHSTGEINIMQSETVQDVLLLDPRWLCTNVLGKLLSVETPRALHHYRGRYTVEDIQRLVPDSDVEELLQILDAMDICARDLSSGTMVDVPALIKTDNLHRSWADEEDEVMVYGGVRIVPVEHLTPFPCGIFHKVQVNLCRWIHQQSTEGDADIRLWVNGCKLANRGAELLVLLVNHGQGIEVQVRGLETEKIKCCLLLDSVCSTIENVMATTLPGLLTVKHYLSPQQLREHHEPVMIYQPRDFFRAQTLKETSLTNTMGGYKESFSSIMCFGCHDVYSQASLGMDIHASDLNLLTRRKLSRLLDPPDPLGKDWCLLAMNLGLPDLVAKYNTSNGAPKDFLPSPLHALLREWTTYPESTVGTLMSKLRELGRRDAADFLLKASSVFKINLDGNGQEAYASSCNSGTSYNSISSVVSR
Procedure: as §1, §2, §3

[12] = molecular target: T11, HIPK1 (Homo sapiens, UniProt Q86Z02); assay: as above; details: single dose concentration of 10 μM, 10 μM ATP
T11 construct: purchased Reaction Biology Corporation
Procedure: as §1, §2, §3

[13] = tested on: RAF1; assay: as above; details: single dose concentration of 10 μM, 10 μM ATP
Procedure: as §1, §2, §3

[14] = molecular target: T12, c-Kit (Homo sapiens, UniProt P10721); assay: as above; details: single dose concentration of 10 μM, 10 μM ATP
T12 construct: purchased Reaction Biology Corporation
T12 sequence (P10721 26-976): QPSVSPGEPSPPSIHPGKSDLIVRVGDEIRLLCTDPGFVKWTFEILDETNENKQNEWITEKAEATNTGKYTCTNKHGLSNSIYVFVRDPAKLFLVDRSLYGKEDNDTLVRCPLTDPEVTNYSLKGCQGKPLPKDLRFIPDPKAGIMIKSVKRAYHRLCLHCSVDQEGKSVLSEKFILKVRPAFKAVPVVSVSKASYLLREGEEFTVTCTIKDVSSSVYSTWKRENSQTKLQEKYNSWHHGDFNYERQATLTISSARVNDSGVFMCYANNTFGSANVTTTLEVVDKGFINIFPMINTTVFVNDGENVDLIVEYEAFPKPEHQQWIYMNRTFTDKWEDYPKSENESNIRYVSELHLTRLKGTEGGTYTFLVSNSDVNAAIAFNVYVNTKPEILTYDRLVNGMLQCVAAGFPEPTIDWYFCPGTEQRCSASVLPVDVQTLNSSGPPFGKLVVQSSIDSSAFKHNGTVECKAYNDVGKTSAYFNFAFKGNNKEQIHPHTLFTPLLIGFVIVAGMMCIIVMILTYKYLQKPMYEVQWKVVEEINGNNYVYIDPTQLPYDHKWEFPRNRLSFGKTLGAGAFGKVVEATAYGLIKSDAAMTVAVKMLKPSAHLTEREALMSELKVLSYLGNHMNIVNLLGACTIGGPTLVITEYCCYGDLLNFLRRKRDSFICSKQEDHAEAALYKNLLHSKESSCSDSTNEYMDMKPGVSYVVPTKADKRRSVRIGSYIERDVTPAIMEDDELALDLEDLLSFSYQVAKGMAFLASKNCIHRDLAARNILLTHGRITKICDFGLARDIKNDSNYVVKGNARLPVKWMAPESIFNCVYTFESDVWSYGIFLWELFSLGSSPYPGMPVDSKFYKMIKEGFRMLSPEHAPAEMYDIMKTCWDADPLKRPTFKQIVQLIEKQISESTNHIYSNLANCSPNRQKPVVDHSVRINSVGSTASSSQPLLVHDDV
Procedure: as §1, §2, §3

[15] = molecular target: T13, IKKa/CHUK (Homo sapiens, UniProt O15111); assay: as above; details: single dose concentration of 10 μM, 10 μM ATP
T13 construct: purchased Reaction Biology Corporation
Procedure: as §1, §2, §3

[16] = molecular target: T14, FGFR1 (Homo sapiens, UniProt P11362); assay: as above; details: single dose concentration of 10 μM, 10 μM ATP
T14 construct: purchased Reaction Biology Corporation
Procedure: as §1, §2, §3

[17] = molecular target: T15, TRKA/NTRK1 (Homo sapiens, UniProt P04629); assay: as above; details: single dose concentration of 10 μM, 10 μM ATP
T15 construct: purchased Reaction Biology Corporation
Procedure: as §1, §2, §3

[18] = molecular target: T16, Ros/Ros1 (Homo sapiens, UniProt P08922); assay: as above; details: single dose concentration of 10 μM, 10 μM ATP
T16 construct: purchased Reaction Biology Corporation
Procedure: as §1, §2, §3

[19] = molecular target: T17, FLT1 (Homo sapiens, UniProt P17948); assay: as above; details: single dose concentration of 10 μM, 10 μM ATP
T17 construct: purchased Reaction Biology Corporation
Procedure: as §1, §2, §3

[20] = molecular target: T18, MST4 (Homo sapiens, UniProt Q9P289); assay: as above; details: single dose concentration of 10 μM, 10 μM ATP
T18 construct: purchased Reaction Biology Corporation
Procedure: as §1, §2, §3

[21] = molecular target: T19, ABL1 (Homo sapiens, UniProt P00519); assay: as above; details: single dose concentration of 10 μM, 10 μM ATP
T19 construct: purchased Reaction Biology Corporation
Procedure: as §1, §2, §3

[22] = molecular target: T20, DNA-PK (Homo sapiens, UniProt P78527); assay: as above; details: single dose concentration of 10 μM, 10 μM ATP
T20 construct: purchased Reaction Biology Corporation
Procedure: as §1, §2, §3

[23] = molecular target: T21, FAK/PTK2 (Homo sapiens, UniProt Q05397); assay: as above; details: single dose concentration of 10 μM, 10 μM ATP
T21 construct: purchased Reaction Biology Corporation
T21 sequence (Q05397 whole entry): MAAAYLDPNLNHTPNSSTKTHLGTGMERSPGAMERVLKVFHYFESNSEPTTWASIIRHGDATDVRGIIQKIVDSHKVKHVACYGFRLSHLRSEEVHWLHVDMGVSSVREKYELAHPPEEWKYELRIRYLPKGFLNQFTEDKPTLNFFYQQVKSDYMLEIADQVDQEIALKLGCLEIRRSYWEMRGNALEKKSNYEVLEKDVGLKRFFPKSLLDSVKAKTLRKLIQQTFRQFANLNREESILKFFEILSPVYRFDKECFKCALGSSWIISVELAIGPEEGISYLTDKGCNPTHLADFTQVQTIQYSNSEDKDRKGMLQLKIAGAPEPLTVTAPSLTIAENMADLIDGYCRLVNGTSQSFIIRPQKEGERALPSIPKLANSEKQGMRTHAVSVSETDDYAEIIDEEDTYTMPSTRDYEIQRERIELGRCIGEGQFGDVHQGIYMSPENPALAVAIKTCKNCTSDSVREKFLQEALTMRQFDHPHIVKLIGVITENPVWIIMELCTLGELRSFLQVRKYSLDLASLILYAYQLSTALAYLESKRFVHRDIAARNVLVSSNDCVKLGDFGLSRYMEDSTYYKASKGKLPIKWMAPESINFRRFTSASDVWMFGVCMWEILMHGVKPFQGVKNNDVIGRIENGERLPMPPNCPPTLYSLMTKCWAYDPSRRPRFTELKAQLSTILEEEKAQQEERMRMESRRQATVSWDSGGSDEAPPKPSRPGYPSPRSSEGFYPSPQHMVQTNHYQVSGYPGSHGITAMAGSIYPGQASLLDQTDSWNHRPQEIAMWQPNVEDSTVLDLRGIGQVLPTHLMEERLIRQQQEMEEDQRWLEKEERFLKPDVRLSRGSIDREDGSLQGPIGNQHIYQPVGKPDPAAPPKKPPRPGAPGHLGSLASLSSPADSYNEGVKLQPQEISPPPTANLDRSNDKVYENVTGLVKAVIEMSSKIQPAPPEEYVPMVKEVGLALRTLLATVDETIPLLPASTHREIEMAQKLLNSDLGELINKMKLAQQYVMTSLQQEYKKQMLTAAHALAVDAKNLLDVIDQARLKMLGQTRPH
Procedure: as §1, §2, §3

[24] = molecular target: T22, P38a/MAPK14 (Homo sapiens, UniProt Q16539); assay: as above; details: single dose concentration of 10 μM, 10 μM ATP
T22 construct: purchased Reaction Biology Corporation
Procedure: as §1, §2, §3

[25] = compared to enzyme activity in DMSO control

- IC50 [1]: 199 nM
- inhibition at 10 µM [2]: 8.23%
- activity at 10 µM [2, 25]: 91.8%
- inhibition at 10 µM [3]: -2.23%
- activity at 10 µM [3, 25]: 102%
- inhibition at 10 µM [4]: -1.45%
- activity at 10 µM [4, 25]: 101%
- inhibition at 10 µM [5]: 8.97%
- activity at 10 µM [5, 25]: 91%
- inhibition at 10 µM [6]: -5.84%
- activity at 10 µM [6, 25]: 106%
- inhibition at 10 µM [7]: 16.2%
- activity at 10 µM [7, 25]: 83.8%
- inhibition at 10 µM [8]: 3.83%
- activity at 10 µM [8, 25]: 96.2%
- inhibition at 10 µM [9]: 6.65%
- activity at 10 µM [9, 25]: 93.3%
- inhibition at 10 µM [10]: -6.97%
- activity at 10 µM [10, 25]: 107%
- inhibition at 10 µM [11]: -1.17%
- activity at 10 µM [11, 25]: 101%
- inhibition at 10 µM [12]: -3.43%
- activity at 10 µM [12, 25]: 103%
- Inhibition (%) [13]: 20.39%
- Activity (%) [13, 25]: 79.61%
- inhibition at 10 µM [14]: 2.85%
- activity at 10 µM [14, 25]: 97.2%
- inhibition at 10 µM [15]: 1.37%
- activity at 10 µM [15, 25]: 98.6%
- inhibition at 10 µM [16]: -8.05%
- activity at 10 µM [16, 25]: 108%
- inhibition at 10 µM [17]: -0.14%
- activity at 10 µM [17, 25]: 100%
- inhibition at 10 µM [18]: 93.9%
- activity at 10 µM [18, 25]: 6.08%
- inhibition at 10 µM [19]: -1.67%
- activity at 10 µM [19, 25]: 102%
- inhibition at 10 µM [20]: -1.54%
- activity at 10 µM [20, 25]: 102%
- inhibition at 10 µM [21]: 20.4%
- activity at 10 µM [21, 25]: 79.6%
- inhibition at 10 µM [22]: 6.56%
- activity at 10 µM [22, 25]: 93.4%
- inhibition at 10 µM [23]: 3.43%
- activity at 10 µM [23, 25]: 96.6%
- inhibition at 10 µM [24]: 5.27%
SMILES: Cc1cc(O)cc(-c2nn(CC#N)cc2-c2cc(NC[C@H](C)O)nc(-c3cccnc3)n2)c1 [Example 10, [4-[6-(2(S)-hydroxypropylamino)-2-pyridin-3-yl-pyrimidin-4-yl]-3-(3-hydroxy-5-methylphenyl)-pyrazol-1-yl]acetonitrile]
